The nature of this experiment: The compound was tested for its inhibition against Neuraminidase of the influenza RNA virus.

Turning to `C=CC[C@@H]1CC(C(=O)O)=C[C@@H](OC(C)C)[C@@H]1NC(C)=O`, the Ki (usually a measure of affinity in units of concentration, obtained from inhibition or displacement) worked out at 14000 nM.

The compound `CCO[C@@H]1C=C(C(=O)O)C[C@H](N)[C@H]1NC(C)=O` yielded a Ki of 180 nM.

For the compound `C=CC[C@H]1CC(C(=O)O)=C[C@@H](OC(C)C)[C@@H]1NC(C)=O`, the Ki came out at 1100 nM.

The compound `CC(=O)N[C@@H]1[C@@H](CCO)CC(C(=O)O)=C[C@H]1OC(C)C` yielded a Ki of 4100 nM.

Consider `C=C[C@@H]1CC(C(=O)O)=C[C@@H](OC(C)C)[C@@H]1NC(C)=O`, for which the affinity, expressed as Ki, was 69000 nM.

Take `C=C[C@H]1CC(C(=O)O)=C[C@@H](OC(C)C)[C@@H]1NC(C)=O`: the affinity corresponds to a Ki of 45 nM.

Compound `C=CC[C@H]1CC(C(=O)O)=C[C@@H](OC(CC)CC)[C@@H]1NC(C)=O` registered a Ki of 1300 nM.

Source of the values: ChEMBL document CHEMBL1136042, “Design, synthesis, and neuraminidase inhibitory activity of GS-4071 analogues that utilize a novel hydrophobic paradigm” (Bioorg Med Chem Lett, 2002).
